In PubChem BioAssay (NCI):
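Values below derive from 48-hour exposures of cells grown in 96-well plates, with endpoints linearly interpolated between the two concentrations bracketing the appropriate inhibition level. The concentration for 50% growth inhibition is given as GI50. The concentration for full growth arrest is given as TGI.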

Experiments:
Assay in all cases: inhibition of tumour cell growth, NCI panel, 48 h
NCI-H226 lung = test system: NCI-H226 lung
NCI-H23 lung = test system: NCI-H23 lung
NCI-H522 lung = test system: NCI-H522 lung
OVCAR-5 ovarian = test system: OVCAR-5 ovarian
RXF 393 renal = test system: RXF 393 renal
SK-MEL-5 melanoma = test system: SK-MEL-5 melanoma
SK-OV-3 ovarian = test system: SK-OV-3 ovarian
SNB-19 CNS = test system: SNB-19 CNS
SNB-75 CNS = test system: SNB-75 CNS
UACC-62 melanoma = test system: UACC-62 melanoma

| SMILES | GI50 (NCI-H226 lung) [µM] | TGI (NCI-H226 lung) [µM] | GI50 (NCI-H23 lung) [µM] | TGI (NCI-H23 lung) [µM] | GI50 (NCI-H522 lung) [µM] | TGI (NCI-H522 lung) [µM] | GI50 (OVCAR-5 ovarian) [µM] | TGI (OVCAR-5 ovarian) [µM] | GI50 (RXF 393 renal) [µM] | TGI (RXF 393 renal) [µM] | GI50 (SK-MEL-5 melanoma) [µM] | TGI (SK-MEL-5 melanoma) [µM] | GI50 (SK-OV-3 ovarian) [µM] | TGI (SK-OV-3 ovarian) [µM] | GI50 (SNB-19 CNS) [µM] | TGI (SNB-19 CNS) [µM] | GI50 (SNB-75 CNS) [µM] | TGI (SNB-75 CNS) [µM] | GI50 (UACC-62 melanoma) [µM] | TGI (UACC-62 melanoma) [µM] |
| --- | --- | --- | --- | --- | --- | --- | --- | --- | --- | --- | --- | --- | --- | --- | --- | --- | --- | --- | --- | --- |
| Cc1cccc2c1[nH]c(=O)c1c3ccccc3cn21 | 3.25 | 27.6 | 17.2 | 38.6 | 6.52 | 64.1 | 17.9 | 65.4 | 9.19 | 38.4 | 11.7 | 23.9 | 27.5 | > 100 | 15.6 | 48 | 30.7 | > 100 | 6.87 | 28.1 |
| CC(C)c1ccc(NC(=O)Cc2ccc(Nc3ncnc4cc(-c5cnn(CCN(C)C)c5)ccc34)cc2)cc1 | > 10 | > 10 | 4.14 | > 10 | 1.56 | 3.94 | 1.44 | 3.28 | 1.3 | 3.43 | > 10 | > 10 | 1.61 | 4.81 | 1.27 | 3.39 | 0.162 | 2.03 | > 10 | > 10 |
| COc1cc(NCCCCCN=C(N)NC(N)=NC(C)C)c2ncccc2c1 | 7.52 | 24.8 | 0.401 | 2.3 | 1.18 | 4.58 | 6.09 | 20.2 | 6.03 | 18.3 | 1.44 | 3.01 | 10.9 | 23.5 | 2.56 | 12.8 | 0.666 | 4.4 | 2.69 | 8.96 |
| CC(C)(C)OC(=O)Nc1ccc2c(c1)C(NC(=O)Nc1cccc(C#N)c1)CC(C)(C)O2 (stereo not given) | 2.29 | 42.8 | 1.09 | > 81.3 | 3.61 | 54.7 | 28 | > 100 | 5.89 | 70.2 | 0.463 | 3.15 | 8.68 | > 100 | 3.54 | > 100 | 7.01 | > 100 | 0.834 | 17 |
| c1ccc(OC2=NC3=S(S2)SC(Oc2ccccc2)=N3)cc1 |  | 90.4 |  | 49 |  | 36.1 |  | 41.9 |  | 24.2 |  | 36.3 |  | 65.2 |  | 45.1 |  | 59.5 |  | 37.6 |
| C[CH2][Sn]([CH2]C)([O]C(=O)c1ccc(F)cc1)[O]C(=O)c1ccc(F)cc1 | 15.5 | 29.4 | 17.3 | 32.8 | 1.71 | 4.48 | 30.5 | > 77.2 | 13.7 | 28.8 | 39.6 | > 100 | > 100 | > 100 | 16.7 | 30.5 | 17.9 | 33.5 | 17.7 | 36.6 |
| N#CC1=C(N)NC(=O)NC12Nc1ccccc1N2 | > 100 | > 100 | > 100 | > 100 | > 100 | > 100 | > 100 | > 100 | > 100 | > 100 | > 100 | > 100 | > 100 | > 100 | > 100 | > 100 | 45.2 | > 100 | > 100 | > 100 |
